Results as given in paper PMC10114980, “Triple targeting of mutant EGFR^L858R/T790M, COX-2, and 15-LOX: design and synthesis of novel quinazolinone tethered phenyl urea derivatives for anti-inflammatory and anticancer evaluation” (Journal of Enzyme Inhibition and Medicinal Chemistry, 2023).

Columns and labels:
ovine COX-1 = target: T1, ovine COX-1 (Ovis aries, UniProt P05979); experiment: In vitro COX-1 inhibition assay kit (Cayman); format: biochemical; settings: mean ± SEM, n = 3 replicates
T1 sequence (P05979 25-600): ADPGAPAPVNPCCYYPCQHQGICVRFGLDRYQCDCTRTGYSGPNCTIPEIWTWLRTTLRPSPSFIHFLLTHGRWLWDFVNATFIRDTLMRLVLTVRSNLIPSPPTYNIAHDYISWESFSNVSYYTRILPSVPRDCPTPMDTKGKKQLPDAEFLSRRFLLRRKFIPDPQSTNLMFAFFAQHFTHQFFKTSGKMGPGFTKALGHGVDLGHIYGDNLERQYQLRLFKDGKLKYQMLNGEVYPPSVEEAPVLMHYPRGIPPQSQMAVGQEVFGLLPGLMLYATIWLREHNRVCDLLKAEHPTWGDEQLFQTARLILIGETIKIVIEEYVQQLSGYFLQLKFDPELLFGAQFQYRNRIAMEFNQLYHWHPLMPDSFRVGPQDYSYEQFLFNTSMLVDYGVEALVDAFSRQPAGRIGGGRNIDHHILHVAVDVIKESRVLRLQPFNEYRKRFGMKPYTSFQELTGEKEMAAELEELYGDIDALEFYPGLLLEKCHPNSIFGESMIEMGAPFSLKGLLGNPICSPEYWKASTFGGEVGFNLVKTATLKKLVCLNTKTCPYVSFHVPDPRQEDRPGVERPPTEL
Experimental: The half-maximal inhibitory concentration (IC50, μM) was determined, and the COX-2 selectivity index (SI) was calculated as IC50 (COX-1)/IC50 (COX-2).

[1] = tested on: 60 NCI cancer cell lines panel; experiment: NCI 60 cell lines panel single dose screen, whole panel; format: cell-based, human; settings: single dose 10^−5 M; for inhibition at 10 µM: Homo sapiens, 60 cell, read-out: growth inhibition percentages range over the sensitive cell lines; for number of cell lines with anticancer activity out of the 60 NCI cell lines: GI higher than 10%
Experimental: (§1) Screening of the anticancer activity of the newly synthesised compounds (6a, 6c, 6d, 6e, 6j, 6l, 6m, 6n, 6o, and 6p) was performed by the US National Cancer Institute (NCI) using 60 different human tumour cell lines in accordance with standard procedures formerly reported.
(§2) In vitro anticancer screening was carried out for the selected compounds at a single dose (10^−5 M) against 60 different human tumour cell lines of nine different cancer cell types: leukaemia, lung, colon, CNS, melanoma, ovarian, renal, prostate, and breast cancers.

CAKI-1 = experiment: NCI single dose screen, CAKI-1; format: cell-based; settings: Homo sapiens; CAKI-1, renal cancer; single dose 10^−5 M; read-out: growth inhibition percentage
Experimental: as §1, §2

HOP-62 = experiment: NCI single dose screen, HOP-62; format: cell-based; settings: Homo sapiens; HOP-62, non-small cell lung cancer; single dose 10^−5 M; read-out: growth inhibition percentage
Experimental: as §1, §2

## CN1CN(NC(=O)Nc2ccccc2)C(=O)c2ccccc21 [Compound 6a, 1-(1-Methyl-4-oxo-1,4-dihydroquinazolin-3(2H)-yl)-3-phenylurea]
Ovine COX-1
  IC50: 12.5 ± 1.36 µM
[1]
  anticancer activity in the NCI 60 panel (in words): did not show any anticancer activities
CAKI-1
  inhibition at 10 µM: < 10%
HOP-62
  inhibition at 10 µM: < 10%

## CN1c2ccccc2C(=O)N(NC(=O)Nc2ccccc2)C1c1ccccc1 (stereo not drawn) [Compound 6c, 1-(1-Methyl-4-oxo-2-phenyl-1,4-dihydroquinazolin-3(2H)-yl)-3-phenylurea]
Ovine COX-1
  IC50: 1 ± 1.78 µM
CAKI-1
  inhibition at 10 µM: < 10%
HOP-62
  inhibition at 10 µM: < 10%

## CN1c2ccccc2C(=O)N(NC(=O)Nc2ccccc2)C1c1ccc(F)cc1 (stereo not drawn) [Compound 6d, 1-(2-(4-Fluorophenyl)-1-methyl-4-oxo-1,4-dihydroquinazolin-3(2H)-yl)-3-phenylurea]
Ovine COX-1
  IC50: 4.56 ± 1.33 µM
CAKI-1
  inhibition at 10 µM: 13%
HOP-62
  inhibition at 10 µM: < 10%

## CN1c2ccccc2C(=O)N(NC(=O)Nc2ccccc2)C1c1ccc([N+](=O)[O-])cc1 (stereo not drawn) [Compound 6e, 1-(1-Methyl-2-(4-nitrophenyl)-4-oxo-1,4-dihydroquinazolin-3(2H)-yl)-3-phenylurea]
Ovine COX-1
  IC50: 9.53 ± 1.21 µM
CAKI-1
  inhibition at 10 µM: < 10%
HOP-62
  inhibition at 10 µM: < 10%

## COc1ccc(NC(=O)NN2C(=O)c3ccccc3N(C)C2c2ccc(OC)cc2)cc1 (stereo not drawn) [Compound 6j, 1-(4-Methoxyphenyl)-3-(2-(4-methoxyphenyl)-1-methyl-4-oxo-1,4-dihydroquinazolin-3(2H)-yl)urea]
Ovine COX-1
  IC50: 26.9 ± 3.03 µM
CAKI-1
  inhibition at 10 µM: < 10%
HOP-62
  inhibition at 10 µM: < 10%

## CC1N(NC(=O)Nc2ccc(F)cc2)C(=O)c2ccccc2N1C (stereo not drawn) [Compound 6l, 1–(1,2-Dimethyl-4-oxo-1,4-dihydroquinazolin-3(2H)-yl)-3-(4-fluorophenyl)urea]
CAKI-1
  inhibition at 10 µM: < 10%
HOP-62
  inhibition at 10 µM: < 10%

## CN1c2ccccc2C(=O)N(NC(=O)Nc2ccc(F)cc2)C1c1ccccc1 (stereo not drawn) [Compound 6m, 1-(4-Fluorophenyl)-3-(1-methyl-4-oxo-2-phenyl-1,4-dihydroquinazolin-3(2H)-yl)urea]
Ovine COX-1
  IC50: 12.4 ± 2.74 µM
[1]
  inhibition at 10 µM: 10.5 to 40.1%
  number of cell lines with anticancer activity out of the 60 NCI cell lines: 19
CAKI-1
  inhibition at 10 µM: < 10%
HOP-62
  inhibition at 10 µM: < 10%

## CN1c2ccccc2C(=O)N(NC(=O)Nc2ccc(F)cc2)C1c1ccc(F)cc1 (stereo not drawn) [Compound 6n, 1-(4-Fluorophenyl)-3-(2–(4-fluorophenyl)-1-methyl-4-oxo-1,4-dihydroquinazolin-3(2H)-yl)urea]
Ovine COX-1
  IC50: 10.5 ± 1.48 µM
[1]
  inhibition at 10 µM: 10.1 to 57.1%
  number of cell lines with anticancer activity out of the 60 NCI cell lines: 32
CAKI-1
  inhibition at 10 µM: 25.1%
HOP-62
  inhibition at 10 µM: 13.3%

## CN1c2ccccc2C(=O)N(NC(=O)Nc2ccc(F)cc2)C1c1ccc([N+](=O)[O-])cc1 (stereo not drawn) [Compound 6o, 1-(4-Fluorophenyl)-3–(1-methyl-2-(4-nitrophenyl)-4-oxo-1,4-dihydroquinazolin-3(2H)-yl)urea]
Ovine COX-1
  IC50: > 100 µM
[1]
  inhibition at 10 µM: 10.7 to 41.3%
  number of cell lines with anticancer activity out of the 60 NCI cell lines: 21
CAKI-1
  inhibition at 10 µM: 18.4%
HOP-62
  inhibition at 10 µM: < 10%

## COc1ccc(C2N(NC(=O)Nc3ccc(F)cc3)C(=O)c3ccccc3N2C)cc1 (stereo not drawn) [Compound 6p, 1-(4-Fluorophenyl)-3-(2–(4-methoxyphenyl)-1-methyl-4-oxo-1,4-dihydroquinazolin-3(2H)-yl)urea]
Ovine COX-1
  IC50: 88.5 ± 3.01 µM
CAKI-1
  inhibition at 10 µM: < 10%
HOP-62
  inhibition at 10 µM: < 10%
